These results are taken from patent US20240309004A1, “SELECTIVE CYCLIN-DEPENDENT KINASE INHIBITORS AND METHODS OF THERAPEUTIC USE THEREOF” (ViroKyne Therapeutics, LLC, priority 2021, published 2024).

Data set [1] concerns HSV2 strain G. In words: HSV2 primary assay, strain G, HFF cells. In kind it is cell-based, herpes simplex virus 2. The procedure:
(§1) Assays were performed in monolayers as described. […] Toxicity was measured using CTG as above. […] Toxicity was measured using CTG as above.
(§2) Monolayers of HFF cells were prepared in six-well plates and incubated at 37° C. for 2 d to allow the cells to reach confluency. Media was then aspirated from the wells and 0.2 mL of virus-containing solution was added to each of three wells to yield 20-30 plaques in each well. The virus was allowed to adsorb to the cells for 1 h and the plates were agitated every 15 minutes. Compounds were diluted in assay media consisting of MEM with Earl's salts supplemented with 2% FBS, glutamine, penicillin, and gentamycin. Diluted drug was added to duplicate wells and the plates were incubated for various times, depending on the virus used. For HSV-1 and -2, the monolayers were then stained with 1% crystal violet in 20% methanol and the unbound dye removed by washing with dH20. For all other assays, the cell monolayer was stained with 1% Neutral Red solution for 4-6 h then the stain was aspirated and the cells were washed with PBS.

In data set [2] the test system is HSV1 strain DM.2 - resistant isolate. In words: HSV1 primary assay, resistant isolate DM.2, HFF cells. In kind it is cell-based, Herpes Simplex Virus 1. The note with it: Human alphaherpesvirus 1, HFF. On the procedure: as §1, §2
In data set [3] the test system is VZV strain Ellen. The data set can be described thus: VZV primary assay, strain Ellen, HFF cells. The data set is classed as cell-based, Varicella Zoster Virus. On the procedure: as §1, §2
The subject of data set [4] is HCMV strain GDGr K17 - resistant isolate. In words: HCMV primary assay, resistant isolate GDGr K17, HFF cells. The data set is classed as cell-based, Human Cytomegalovirus. The settings on record: Human betaherpesvirus 5, HFF. On the procedure:
as §1

The test system of data set [5] is HSV1 strain E-377. The data set can be described thus: HSV1 primary assay, strain E-377, HFF cells. The data set is classed as cell-based, Herpes Simplex Virus 1. On the procedure: as §1, §2
Data set [6] deals with Epstein-Barr virus Akata strain. In words: Epstein-Barr primary assay, Akata strain, Akata cells. The data set is classed as cell-based. The settings on record: human gammaherpesvirus 4, Akata.
The subject of data set [7] is Adenovirus Adenoid75 strain. The data set can be described thus: Adenovirus secondary assay (yield reduction), Adenoid75 strain, HFF cells. In kind it is cell-based. The settings on record: unidentified adenovirus, HFF. On the procedure: (§3) Monolayers of HFF cells were prepared in 96-well plates and incubated at 37° C. for 1 d to allow the cells to reach confluency. Media was then aspirated from the wells and cells infected at a high MOI. At 1 h following infection, the inocula were removed and the monolayers rinsed with fresh media. […] Drug dilutions were added to the wells and the plates were incubated for various times, depending on the virus used and represents a single replication cycle for the virus. A duplicate set of dilutions were also performed but remained uninfected to serve as a cytotoxicity control and received equal compound exposure. Supernatants from each of the infected wells were subsequently titered using CTG in a TCID50 assay to quantify the progeny virus. For HCMV only, viral yield in the supernatants from the infected cells were titered using qPCR with HCMV primers [NT], and probe [NT].

A short description of data set [8]: Cytotoxicity concurrent with HCMV AD169 primary assay. In kind it is cell-based, human. The settings on record: human.
The subject of data set [9] is VZV strain 15-6-001 resistant isolate. The data set can be described thus: microbe, parasite or virus in culture. The data set is classed as cell-based, Varicella Zoster Virus. The settings on record: Human alphaherpesvirus 3, HFF. On the procedure:
as §1, §2

Data set [10] can be described thus: Cytotoxicity concurrent with Adenovirus primary assay. In kind it is cell-based. The note with it: human; Adenovirus primary assay, HFF cells; read-out: CC50.
Data set [11] deals with Adenovirus Adenoid75 strain. The data set can be described thus: Adenovirus primary assay, Adenoid75 strain, HFF cells. The data set is classed as cell-based. The note with it: unidentified adenovirus, HFF.
Data set [12] in a line: Cytotoxicity concurrent with VZV Ellen primary assay. The settings on record: human; VZV Ellen primary assay, cell line HFF; read-out: CC50. The data set is classed as cell-based. On the procedure: as §1
Data set [13] has as its system HCMV strain AD169. In words: HCMV primary assay (CPE), strain AD169, HFF cells. The data set is classed as cell-based, Human Cytomegalovirus. The procedure: The antiviral activity of the compound against HCMV in the described Primary assay was measured by treating primary Human foreskin fibroblast (HFF) cells infected with HCMV with a range of compound concentrations—description of methods for this assay can be found in section 1.3.2.1. […] . Additional tested assay parameters in this Primary assay can be found in Table 3.2.1 and include EC90, S150, and S190 values—descriptions of those data points can be found in section 3.2.1.

Data set [14] is described as follows: Cytotoxicity concurrent with HSV2 primary assay. The data set is classed as cell-based. The settings on record: human; HSV2 primary assay, HFF cells; read-out: CC50. The procedure:
as §1

Data set [15] in a line: Cytotoxicity concurrent with Adenovirus secondary assay. In kind it is cell-based. The settings on record: human; Adeno secondary assay, HFF cells. On the procedure:
as §3

Data set [16] can be described thus: Cytotoxicity concurrent with EBV primary assay. The settings on record: human.
Data set [17] is described as follows: Cytotoxicity concurrent with HSV1 E-377 primary assay. In kind it is cell-based. The settings on record: human; HSV1 E-377 primary assay, HFF cells; read-out: CC50. On the procedure:
as §1

Data set [18] in a line: Cytotoxicity concurrent with VZV 15-6-001 primary assay. In kind it is cell-based. The settings on record: human, HFF cell line. The procedure:
as §1

Data set [19] is described as follows: Metabolic stability in mice liver microsomes. The settings on record: mice liver microsomes, 1 μM compound, 1 mM NADPH, 60 min. On the procedure: Potassium phosphate buffer (Kphos) was prepared by adding 0.647 g potassium phosphate monobasic (KH2PO4) and 3.527 g potassium phosphate dibasic (K2HPO4) to 400 mL of Milli-Q water. pH of the buffer was adjusted to 7.4 and volume was made up to 500 mL.
Stock solutions of the test compounds were prepared in DMSO at a concentration of 1 mM.
To this microsomal mix 1.42 μL (1 mM) of test compound and positive control were spiked, from this mix 70 μL was transferred to 96 well plate and pre-incubated at 37° C. for 5 min. […] The plates were centrifuged at 4000 RPM for 15 min and 100 μL aliquots were submitted for analysis by LC-MS/MS.
Samples were monitored for parent compound disappearance in MRM mode using LC-MS/MS. The LC-MS/MS conditions and MRM chromatogram will be provided as per client request.
The peak area ratios of analyte versus internal standard were used to calculate the % remaining at the end of 60 minutes in presence NADPH.

A short description of data set [20]: Cytotoxicity concurrent with HPV11 primary assay. The data set is classed as cell-based. The settings on record: human, C-33 A cells. The text has this: (§4) An HPV11 replicon assay was developed and expresses the essential E1 and E2 proteins from the native promoter. The E2 origin binding protein interacts with the virus origin of replication and recruits the E1 replicative helicase which unwinds the DNA and helps to recruit the cellular DNA replication machinery (including DNA polymerases, type I and type II topoisomerases, DNA ligase, single-stranded DNA binding proteins, proliferating cell nuclear antigen). The replication complex then drives the amplification of the replicon which can be assessed by the expression of a destabilized NanoLuc reporter gene carried on the replicon. In this assay, the replicon (pMP619) is transfected into C-33 A cells grown as monolayers in 384-well plates. At 48 h post transfection, the enzymatic activity of the destabilized NanoLuc reporter is assessed with NanoGlo reagent. […] . Beadle et al., 2016.

The target of data set [21] is CDK9/cyclin T1 (Homo sapiens (Human), UniProt P50750). In words: Kinase activity assay, CDK9/cyclin T1. In kind it is biochemical. The settings on record: Table 3.1.2; 10 μM ATP; 10-dose triplicate starting at 9.827 μM; unit not printed (table 3.1.1 prints M); read-out: CDK9/cyclin T1 kinase activity (IC50).
Chain of CDK9/cyclin T1 (P50750 whole entry): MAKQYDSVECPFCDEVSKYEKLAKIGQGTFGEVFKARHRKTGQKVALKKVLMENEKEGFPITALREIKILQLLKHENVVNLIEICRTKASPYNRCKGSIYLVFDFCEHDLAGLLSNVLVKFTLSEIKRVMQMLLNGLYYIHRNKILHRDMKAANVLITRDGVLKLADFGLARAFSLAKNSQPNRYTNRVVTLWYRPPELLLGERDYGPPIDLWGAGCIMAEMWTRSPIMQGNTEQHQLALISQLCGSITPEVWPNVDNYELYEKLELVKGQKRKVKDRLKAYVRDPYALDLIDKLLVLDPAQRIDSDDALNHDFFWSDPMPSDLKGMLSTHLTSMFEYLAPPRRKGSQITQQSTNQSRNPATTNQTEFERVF
Chain of CDK9/cyclin T1 (O60563 whole entry partner): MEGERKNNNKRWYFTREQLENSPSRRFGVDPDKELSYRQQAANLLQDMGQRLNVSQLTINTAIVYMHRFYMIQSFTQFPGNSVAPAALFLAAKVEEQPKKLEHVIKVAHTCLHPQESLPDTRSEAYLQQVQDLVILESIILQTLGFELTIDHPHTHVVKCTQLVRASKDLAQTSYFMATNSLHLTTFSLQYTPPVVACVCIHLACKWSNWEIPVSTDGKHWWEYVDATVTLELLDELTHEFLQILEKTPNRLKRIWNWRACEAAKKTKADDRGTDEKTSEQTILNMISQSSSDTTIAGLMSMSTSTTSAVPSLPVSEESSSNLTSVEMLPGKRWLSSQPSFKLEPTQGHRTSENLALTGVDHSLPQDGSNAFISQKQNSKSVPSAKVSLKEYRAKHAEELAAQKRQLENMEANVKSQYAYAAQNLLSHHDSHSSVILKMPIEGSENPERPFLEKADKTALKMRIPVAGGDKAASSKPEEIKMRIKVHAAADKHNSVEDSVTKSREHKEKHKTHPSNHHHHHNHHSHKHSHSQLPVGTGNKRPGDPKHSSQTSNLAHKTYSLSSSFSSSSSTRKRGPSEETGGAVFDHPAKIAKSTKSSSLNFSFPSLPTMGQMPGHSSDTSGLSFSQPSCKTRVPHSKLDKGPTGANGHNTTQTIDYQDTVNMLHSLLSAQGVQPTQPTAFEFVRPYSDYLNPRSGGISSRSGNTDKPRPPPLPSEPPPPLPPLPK
Data set [22] relates to Human herpes virus 6B strain Z29. The data set can be described thus: Human herpes virus 6B primary assay, strain Z29, MOLT-3 cells. The data set is classed as cell-based, Human Herpesvirus 6B. The settings on record: Human betaherpesvirus 6B.
Data set [23] is described as follows: Cytotoxicity concurrent with HHV-6B primary assay. The data set is classed as cell-based. The settings on record: human, MOLT-3 cells.
The nature of data set [24]: Cytotoxicity concurrent with HHV-8 primary assay. In kind it is cell-based. The note with it: human, BCBL-1 cells.
Data set [25] deals with Human herpes virus 8 strain BCBL-1. In words: Human herpes virus 8 primary assay, BCBL-1 cells. The data set is classed as cell-based, Human Herpesvirus 8. The settings on record: Human gammaherpesvirus 8, BCBL1, strain BCBL-1, BCBL-1 cells.
Data set [26] concerns Human papillomavirus 11 strain HE611260.1. The data set can be described thus: Human papillomavirus 11 primary assay (replicon), C-33 A cells. The note with it: strain HE611260.1, C-33 A cells. The data set is classed as cell-based.
Excerpt: as §4
(In general: In antiviral work, replicon cells carry a viral genome segment that copies itself.)

Setting [27] is: Human betaherpesvirus 5, AD169, HFF.

Like-named read-outs stand apart in the source and are kept apart here.

In the case of `Nc1nc2c(ncn2COCCO)c(=O)[nH]1` [Acyclovir, reference compound], the EC50 (as a rule, the concentration giving half of the maximal effect) in data set [1] (Human alphaherpesvirus 2, HSV2 primary assay, strain G, HFF cells, read-out: EC50) stood at 2.56 µM; in data set [2] it was 150 µM; in data set [3] (Human alphaherpesvirus 3, VZV primary assay, strain Ellen, cell line HFF, read-out: EC50), 5.59 µM; in [4] it was 16.8 µM; in data set [5] (Human alphaherpesvirus 1, HSV1 primary assay, strain E-377, HFF cells, read-out: EC50), 2.56 µM. The 90% effect concentration (EC90) (in general, the concentration needed for an effect of 90%) in data set [3] (Human alphaherpesvirus 3, VZV primary assay, strain Ellen, cell line HFF, read-out: EC90) is 69.4 µM.

For `OCC1CCC(Nc2cc3c4ccc(F)cc4nn3cn2)CC1` (stereo not drawn) [VKT-029], the EC50 turned out to be 4.79 µM in data set [6]; 10 µM in [9]; 50 µM in data set [1] (Human alphaherpesvirus 2, HFF); 4.02 µM in data set [3] (Human alphaherpesvirus 3, HFF); 5.12 µM in data set [11]; 50 µM in [13] (setting [27]). The molecule also returned an EC50 in data set [5] (Human alphaherpesvirus 1, HFF) of 50 µM. The EC90 in data set [6] came out at 12.1 µM; in data set [7], 3.91 µM; in [9], 10 µM; in [1] (Human alphaherpesvirus 2, HFF), 50 µM; in data set [3] (Human alphaherpesvirus 3, HFF) it was 10 µM; in data set [13] (setting [27]), 50 µM. The EC90 in [5] (Human alphaherpesvirus 1, HFF) was 50 µM. Further, the CC50 (commonly the concentration giving 50% cytotoxicity) in data set [8] (HCMV primary assay, HFF cells, read-out: CC50) came out at 50 µM; in data set [10] it was 50 µM; in [12] it was 45.1 µM; in data set [14], 50 µM; in [15] it was 100 µM; in [17] it was 50 µM. It took 47.2 µM to reach half-maximal cytotoxicity in [18] (CC50). In data set [16], this molecule showed a CC50 at 72 h of 50 µM.

For the molecule `Fc1ccc2c(c1)nn1cnc(NC3CCOCC3)cc21` [VKT-320, 7-fluoro-N-(tetrahydro-2H-pyran-4-yl)pyrimido[1,6-b]indazol-3-amine], the “% Remaining at 60 min” value in data set [19] is 37%. In addition, the CC50 in data set [20] is 50 µM; in data set [8] (CC50) it was 38.5 µM; in [24], 50 µM. The EC50 in data set [13] (Human betaherpesvirus 5, HCMV primary assay, virus strain AD169, HFF cells, read-out: EC50) is 10 µM; in data set [22] it was 8.96 µM; in data set [25] it was 22.1 µM; in data set [26] it was 7.99 µM. In addition, the EC90 in [13] (Human betaherpesvirus 5, HCMV primary assay, virus strain AD169, HFF cells, read-out: EC90) was 10 µM; in data set [22], 32.6 µM; in data set [25], 44.2 µM; in data set [26], 19.8 µM. In data set [21], the IC50 turned out to be 1.68 µM. The molecule also displayed a CC50 at 7 d in data set [23] of 50 µM.
